The text below walks through data of patent US11505536B2, “Dihydroorotate dehydrogenase inhibitors” (Janssen Biotech, Inc., priority 2019, dated 2022).

For assay [1], the system named is MOLM-13 cells (human acute myeloid leukemia cells). As to the kind of experiment: MOLM-13 Cellular Assay. The class given is cell-based. The following applies: Homo sapiens, MOLM-13, 72 h, 72 hours exposure, cell viability by CellTiter-Glo. Summed up: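 MOLM-13 AML cells, seeded at 5,000/well in RPMI 1640 with 10% FBS, were treated with compounds right after seeding for 72 h at 37 °C, 5% CO2. Viability read by CellTiter-Glo luminescence.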
(ATP-based viability assays read luminescence as a measure of living cells.)

Another assay has as its target human DHODH (Homo sapiens (Human), UniProt Q02127). Put plainly: DHODH Enzymatic Assay. Conditions: purified human DHODH, DCIP absorbance, end-point mode; read-out: hDHODH IC50. The assay is classed as biochemical. Summed up: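 Purified human DHODH in […] HEPES pH 7.5, 150 mM NaCl, 0.5 mM EDTA, 0.1% Triton X-100; reaction started with substrate mix of 20 mM DHO, 5 mM CoQ6, 1 mM DCIP. End-point read as DCIP reduction (absorbance ~600 nm) after brequinar quench.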

pIC50: −log10 of the molar value.

Chain of human DHODH (Q02127 whole entry): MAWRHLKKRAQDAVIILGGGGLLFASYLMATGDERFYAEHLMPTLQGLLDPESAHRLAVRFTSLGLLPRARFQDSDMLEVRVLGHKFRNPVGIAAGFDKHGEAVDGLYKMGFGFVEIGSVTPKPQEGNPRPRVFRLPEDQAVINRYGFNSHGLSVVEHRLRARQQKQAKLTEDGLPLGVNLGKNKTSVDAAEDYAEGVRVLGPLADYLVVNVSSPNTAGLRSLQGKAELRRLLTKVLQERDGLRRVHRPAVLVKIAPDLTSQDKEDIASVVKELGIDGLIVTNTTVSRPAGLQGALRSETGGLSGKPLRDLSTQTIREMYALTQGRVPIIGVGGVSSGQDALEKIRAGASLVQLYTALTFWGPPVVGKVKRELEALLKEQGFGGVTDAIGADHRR

In the case of `C=C(C)c1cn(-c2c(C)cnc(OC)c2C)c(=O)c2cc(F)c(-n3nc(CO)n(CC)c3=O)cc12` [Example 71, 6-(4-Ethyl-3-(hydroxymethyl)-5-oxo-4,5-dihydro-1H-1,2,4-triazol-1-yl)-7-fluoro-2-(2-methoxy-3,5-dimethylpyridin-4-yl)-4-(prop-1-en-2-yl)isoquinolin-1(2H)-one], the figures for the pIC50 (in assay [1]; on human DHODH) were 8.00 and 8.69, respectively.
For `C=C(C)c1cn(-c2cc(F)ccc2F)c(=O)c2cc(F)c(-n3nc(CO)n(CC)c3=O)cc12` [Example 72, 2-(2,5-Difluorophenyl)-6-(4-ethyl-3-(hydroxymethyl)-5-oxo-4,5-dihydro-1H-1,2,4-triazol-1-yl)-7-fluoro-4-(prop-1-en-2-yl)isoquinolin-1(2H)-one], in that order: 8.70 and 9.02.
With `C=C(C)c1cn(-c2c(C)cccc2F)c(=O)c2cc(F)c(-n3nc(CO)n(CC)c3=O)cc12` [Example 73, 6-(4-Ethyl-3-(hydroxymethyl)-5-oxo-4,5-dihydro-1H-1,2,4-triazol-1-yl)-7-fluoro-2-(2-fluoro-6-methylphenyl)-4-(prop-1-en-2-yl)isoquinolin-1(2H)-one], the pIC50 in assay [1] is 9.15; on human DHODH, 9.25.
For `CCn1c(CO)nn(-c2cc3c(C(C)C)cn(-c4cccc(F)c4C)c(=O)c3cc2F)c1=O` [Example 74, 6-(4-Ethyl-3-(hydroxymethyl)-5-oxo-4,5-dihydro-1H-1,2,4-triazol-1-yl)-7-fluoro-2-(3-fluoro-2-methylphenyl)-4-isopropylisoquinolin-1(2H)-one], in that order: 8.15 and 8.65.
As to `CCn1c(CO)nn(-c2cc3c(C(C)C)cn(-c4cc(C)ccc4C)c(=O)c3cc2F)c1=O` [Example 75, 2-(2,5-Dimethylphenyl)-6-(4-ethyl-3-(hydroxymethyl)-5-oxo-4,5-dihydro-1H-1,2,4-triazol-1-yl)-7-fluoro-4-isopropylisoquinolin-1(2H)-one], the figures for the pIC50 (in assay [1]; at human DHODH) were 9.00 and 9.24, respectively.
For `C=C(C)c1cn(-c2ccc(F)cc2C)c(=O)c2cc(F)c(-n3nc(CO)n(CC)c3=O)cc12` [Example 76, 6-(4-Ethyl-3-(hydroxymethyl)-5-oxo-4,5-dihydro-1H-1,2,4-triazol-1-yl)-7-fluoro-2-(4-fluoro-2-methylphenyl)-4-(prop-1-en-2-yl)isoquinolin-1(2H)-one], in that order: 8.40 and 8.82.
On the same counts, the results for `CCn1c(CO)nn(-c2cc3c(C(C)C)cn(-c4ccccc4F)c(=O)c3cc2F)c1=O` [Example 77, 6-(4-Ethyl-3-(hydroxymethyl)-5-oxo-4,5-dihydro-1H-1,2,4-triazol-1-yl)-7-fluoro-2-(2-fluorophenyl)-4-isopropylisoquinolin-1(2H)-one] are 8.52 and 8.73.
Turning to `CCn1c(CO)nn(-c2cc3c(C(C)C)cn(-c4c(C)cnc(OC)c4C)c(=O)c3cc2F)c1=O` [Example 78, 6-(4-Ethyl-3-(hydroxymethyl)-5-oxo-4,5-dihydro-1H-1,2,4-triazol-1-yl)-7-fluoro-4-isopropyl-2-(2-methoxy-3,5-dimethylpyridin-4-yl)isoquinolin-1(2H)-one], the pIC50 in assay [1] was 7.70; at human DHODH, 8.63.
For `C=C(C)c1cn(-c2ccccc2C)c(=O)c2cc(C)c(-n3nc(CO)n(CC)c3=O)cc12` [Example 79, 6-(4-Ethyl-3-(hydroxymethyl)-5-oxo-4,5-dihydro-1H-1,2,4-triazol-1-yl)-7-methyl-4-(prop-1-en-2-yl)-2-(o-tolyl)isoquinolin-1(2H)-one], in that order: 8.00 and 7.77.
For `CCn1c(CO)nn(-c2cc3c(C(C)C)cn(-c4c(F)ccc(OC)c4Cl)c(=O)c3cc2F)c1=O` [Example 80, 2-(2-Chloro-6-fluoro-3-methoxyphenyl)-6-(4-ethyl-3-(hydroxymethyl)-5-oxo-4,5-dihydro-1H-1,2,4-triazol-1-yl)-7-fluoro-4-isopropylisoquinolin-1(2H)-one], the pIC50 in assay [1] was 9.52; at human DHODH it was 9.56.

One may read the pIC50 as the negative decadic logarithm of the IC50, by convention in mol/L.
